IC50 and EC50 data for one molecule are collected here from patent US12643899B2, “Antiviral agents, uses thereof and methods for their preparation” (The University of British Columbia, priority 2020, dated 2026).

Holding throughout (experiment): microbe, parasite or virus in culture
What all share (format): cell-based

Experiment [1] deals with SARS-CoV-2 England (VOC 202012/01).
Experiment [2] has as its system SARS-CoV-2 South Africa (501Y.V2). To be noted: Severe acute respiratory syndrome coronavirus 2, Calu-3.
The subject of another experiment is SARS-CoV-2 Nigeria (484). The conditions noted are these: Severe acute respiratory syndrome coronavirus 2, Calu-3.
Experiment [3] has as its system SARS-CoV-2 Wuhan strain from VIDO (SB). To be noted: Severe acute respiratory syndrome coronavirus 2, Calu-3.

For `COc1c2n(c3ccccc13)[C@]1(O)C(=O)N(C)C(=O)[C@]1(O)c1c-2[nH]c2ccc(Cl)cc12` [CA, (11S,15R)-7-chloro-11,15-dihydroxy-23-methoxy-13-methyl-3,13,16-triazahexacyclo[14.7.0.0^2,10.0^4,9.0^11,15.0^17,22]tricosa-1(23),2(10),4(9),5,7,17,19,21-octaene-12,14-dione], the IC50 in experiment [1] (Severe acute respiratory syndrome coronavirus 2, Calu-3) worked out at 0.000801 µM; in experiment [2] it was 0.0123 µM; in the experiment with SARS-CoV-2 Nigeria (484), 0.0122 µM; in experiment [3], 0.0577 µM. The EC50 in experiment [1] (Severe acute respiratory syndrome coronavirus 2, Calu-3, read-out: ED50) was ~0.0008 µM.

By IC50 is commonly meant the concentration at which inhibition is half-maximal.
